Measurements as given in ChEMBL document CHEMBL1201862, “PubChem BioAssay data set” (2004).
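All cell lines were grown in 96-well plates and treated with compound for 48 hours. Here, GI50 denotes the concentration required for 50% inhibition of growth.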 Calls of active or inactive are those of the source. No stated cut-off is given here; in the data, active = GI50 up to about 1.1 µM and inactive = higher.

Assays:
Assay in all cases: inhibition of tumour cell growth, NCI panel, 48 h
[1] = system: M14
[2] = system: MCF7
[3] = system: RXF 393
[4] = system: Hs-578T
[5] = system: TK-10
[6] = system: CCRF-CEM
[7] = system: OVCAR-5
[8] = system: EKVX
[9] = system: HL-60
[10] = system: UACC-62
[11] = system: ACHN
[12] = system: IGROV-1
[13] = system: SK-MEL-28
[14] = system: SN12C
[15] = system: NCI-H23
[16] = system: Malme-3M
[17] = system: UACC-257
[18] = system: SNB-19
[19] = system: LOX IMVI
[20] = system: CAKI-1
[21] = system: OVCAR-4
[22] = system: MDA-N
[23] = system: BT-549
[24] = system: HCT-116
[25] = system: HCT-15
[26] = system: HT-29
[27] = system: SF-295
[28] = system: HCC 2998
[29] = system: COLO 205
[30] = system: A498
[31] = system: DU-145
[32] = system: U-251
[33] = system: HOP-92
[34] = system: OVCAR-3
[35] = system: K562
[36] = system: SK-MEL-5
[37] = system: SR
[38] = system: NCI-H460
[39] = system: A549
[40] = system: 786-0
[41] = system: SF-539
[42] = system: MDA-MB-435
[43] = system: UO-31
[44] = system: RPMI-8226
[45] = system: OVCAR-8
[46] = system: NCI-H522
[47] = system: SW-620
[48] = system: MOLT-4
[49] = system: KM12
[50] = system: SK-OV-3
[51] = system: NCI-H226
[52] = system: NCI/ADR-RES
[53] = system: PC-3
[54] = system: SF-268
[55] = system: SNB-75
[56] = system: MDA-MB-231
[57] = system: HOP-62

CCOC(=O)[C@H](Cc1ccc(O)cc1)/N=C1/[C@H]2CCC[C@]1(O)[C@@](C)([N+](=O)[O-])C2
GI50 [1]: > 100 µM (inactive) | GI50 [2]: > 100 µM (inactive) | GI50 [3]: > 100 µM (inactive) | GI50 [4]: > 100 µM (inactive) | GI50 [5]: > 100 µM (inactive) | GI50 [6]: > 100 µM (inactive) | GI50 [7]: > 100 µM (inactive) | GI50 [8]: > 100 µM (inactive) | GI50 [9]: > 100 µM (inactive) | GI50 [10]: > 100 µM (inactive) | GI50 [11]: > 100 µM (inactive) | GI50 [12]: > 100 µM (inactive) | GI50 [13]: > 100 µM (inactive) | GI50 [14]: > 100 µM (inactive) | GI50 [15]: > 100 µM (inactive) | GI50 [16]: > 100 µM (inactive) | GI50 [17]: > 100 µM (inactive) | GI50 [18]: > 100 µM (inactive) | GI50 [19]: > 100 µM (inactive) | GI50 [20]: > 100 µM (inactive) | GI50 [21]: > 100 µM (inactive) | GI50 [22]: > 100 µM (inactive) | GI50 [23]: > 100 µM (inactive) | GI50 [24]: > 100 µM (inactive) | GI50 [25]: > 100 µM | GI50 [26]: > 100 µM (inactive) | GI50 [27]: > 100 µM (inactive) | GI50 [28]: > 100 µM (inactive) | GI50 [29]: > 100 µM (inactive) | GI50 [30]: > 100 µM (inactive) | GI50 [31]: > 100 µM (inactive) | GI50 [32]: > 100 µM (inactive) | GI50 [33]: > 100 µM (inactive) | GI50 [34]: > 100 µM (inactive) | GI50 [35]: > 100 µM (inactive) | GI50 [36]: > 100 µM (inactive) | GI50 [37]: > 100 µM (inactive) | GI50 [38]: > 100 µM (inactive) | GI50 [39]: > 100 µM (inactive) | GI50 [40]: > 100 µM (inactive) | GI50 [41]: > 100 µM (inactive) | GI50 [42]: > 100 µM (inactive) | GI50 [43]: > 100 µM (inactive) | GI50 [44]: > 100 µM (inactive) | GI50 [45]: > 100 µM (inactive) | GI50 [46]: 63.7 µM (inactive) | GI50 [47]: > 100 µM (inactive) | GI50 [48]: > 100 µM (inactive) | GI50 [49]: > 100 µM (inactive) | GI50 [50]: > 100 µM (inactive) | GI50 [51]: > 100 µM (inactive) | GI50 [52]: > 100 µM (inactive)

COc1ccc(C2C3=C(CCCC3=O)N(c3ccccc3)C3=C2C(=O)CCC3)cc1
GI50 [1]: > 100 µM (inactive) | GI50 [2]: 43.8 µM (inactive) | GI50 [3]: 19.5 µM (inactive) | GI50 [4]: 43.2 µM (inactive) | GI50 [5]: > 100 µM (inactive) | GI50 [6]: > 100 µM (inactive) | GI50 [7]: > 100 µM (inactive) | GI50 [8]: > 100 µM (inactive) | GI50 [9]: > 100 µM (inactive) | GI50 [10]: 87.1 µM (inactive) | GI50 [11]: > 100 µM (inactive) | GI50 [12]: > 100 µM (inactive) | GI50 [13]: > 100 µM (inactive) | GI50 [14]: > 100 µM (inactive) | GI50 [15]: > 100 µM (inactive) | GI50 [18]: 58.9 µM (inactive) | GI50 [19]: > 100 µM (inactive) | GI50 [20]: > 100 µM (inactive) | GI50 [21]: 61.5 µM (inactive) | GI50 [23]: 29.4 µM (inactive) | GI50 [25]: > 100 µM | GI50 [26]: > 100 µM (inactive) | GI50 [53]: > 100 µM (inactive) | GI50 [30]: > 100 µM (inactive) | GI50 [32]: 75.7 µM (inactive) | GI50 [33]: 29 µM (inactive) | GI50 [54]: 79.4 µM (inactive) | GI50 [34]: 89.7 µM (inactive) | GI50 [35]: > 100 µM (inactive) | GI50 [36]: > 10 µM (inactive) | GI50 [37]: > 100 µM (inactive) | GI50 [38]: > 100 µM (inactive) | GI50 [55]: 28.2 µM (inactive) | GI50 [39]: > 100 µM (inactive) | GI50 [40]: 45.6 µM (inactive) | GI50 [41]: > 100 µM (inactive) | GI50 [43]: > 100 µM (inactive) | GI50 [44]: > 100 µM (inactive) | GI50 [47]: > 100 µM (inactive) | GI50 [48]: > 100 µM (inactive) | GI50 [49]: > 100 µM (inactive) | GI50 [50]: 50.6 µM (inactive) | GI50 [51]: 21.6 µM (inactive) | GI50 [52]: > 100 µM (inactive)

O=C1NC2ON=C(c3ccccc3)C2C2ON=C(c3ccccc3)N12 (stereo not drawn)
GI50 [1]: > 100 µM (inactive) | GI50 [2]: 77.4 µM (inactive) | GI50 [3]: > 100 µM (inactive) | GI50 [4]: 63.2 µM (inactive) | GI50 [5]: > 100 µM (inactive) | GI50 [7]: > 100 µM (inactive) | GI50 [8]: > 100 µM (inactive) | GI50 [10]: > 100 µM (inactive) | GI50 [11]: > 100 µM (inactive) | GI50 [12]: 54.3 µM (inactive) | GI50 [15]: > 100 µM (inactive) | GI50 [16]: > 100 µM (inactive) | GI50 [17]: > 100 µM (inactive) | GI50 [18]: 92 µM (inactive) | GI50 [19]: 90.4 µM (inactive) | GI50 [20]: > 100 µM (inactive) | GI50 [22]: 39.6 µM (inactive) | GI50 [23]: > 100 µM (inactive) | GI50 [25]: 43.4 µM | GI50 [26]: 41.2 µM (inactive) | GI50 [27]: > 100 µM (inactive) | GI50 [28]: > 100 µM (inactive) | GI50 [53]: 72.4 µM (inactive) | GI50 [56]: > 100 µM (inactive) | GI50 [29]: > 100 µM (inactive) | GI50 [31]: > 100 µM (inactive) | GI50 [54]: > 100 µM (inactive) | GI50 [34]: > 100 µM (inactive) | GI50 [57]: > 100 µM (inactive) | GI50 [36]: 54 µM (inactive) | GI50 [38]: > 100 µM (inactive) | GI50 [55]: > 100 µM (inactive) | GI50 [39]: > 100 µM (inactive) | GI50 [40]: > 100 µM (inactive) | GI50 [41]: > 100 µM (inactive) | GI50 [43]: > 100 µM (inactive) | GI50 [45]: 64.6 µM (inactive) | GI50 [46]: 40.5 µM (inactive) | GI50 [49]: 69.2 µM (inactive) | GI50 [50]: > 100 µM (inactive) | GI50 [51]: > 100 µM (inactive) | GI50 [52]: 45.9 µM (inactive)
